Key:
[1] = test system: Mgp^−/− mouse model of AVM; experiment: Brain appearance and immunostaining of brain sections; type: in vivo; conditions: Mgp^−/− mice, IN 2-weeks
Procedure: Immunostaining was performed as previously described^15. ([…], Golden […], et al. Glioma-associated endothelial cells are chemoresistant to temozolomide. J Neurooncol. 2009; 95(1):13-22). Primary antibodies used were rabbit anti-MMP2, mouse anti-MMP9 (1:150, Abgent), rabbit anti-phospho-Smad1/5 ([…]/465) (1:50, Abgent), rabbit anti-BMP4, rabbit anti-PAI-1 (1:50, Proteintech), rabbit anti-VEGF (1:50, Santa Cruz Biotechnology), rabbit anti-HIF-1α (1:50, Cell Signaling Technology), and rabbit anti-phospho-Smad3 ([…]/425) (1:50, GeneTex). Secondary antibodies used were biotinylated anti-rabbit and biotinylated anti-mouse (1:300, Vector Laboratories), accordingly. Pictures were taken in an Eclipse 80i microscope (Nikon). Images shown are representative of three-five independent experiments. In vivo efficacy studies were performed using 3-week-old Mgp^+/- C57BL/6 mice^16,17 (Yao Y, Jumabay M, Wang A, Boström K I. Matrix Gla protein deficiency causes arteriovenous malformations in mice. J Clin Invest. 2011; 121(8):2993-3004) (Yao Y, Yao […], et al. Reducing Jagged 1 and 2 levels prevents cerebral arteriovenous malformations in matrix Gla protein deficiency. Proc Nat Acad Sci USA. 2013; 110(47):19071-19076). provided by Dr. Yucheng Yao (UCLA, Los Angeles) and mated to obtain the appropriate genotypes. Only about 10-15% of each litter were born with the Mgp^-/- genotype, and among those, only about 45% survived until the end of the treatment and/or the imaging of the brain vasculature, due to the extreme severity of the disease in this mouse model. These animals not only suffer AVMs in the brain, but all major organs are also affected and dysfunctional. Thus, […] might die due to several causes, including stroke, severe lung inflammation that causes respiratory failure-especially when anesthesia is used-, organ failure due to liver and/or spleen malfunction, heart failure, etc., drastically limiting the number of the Mgp^-/- mice available for the CTA studies. […] Treatment with 0.08 nmol/mouse of miR-18a or scramble microRNA was administered IN daily for 2-weeks. 2.5 μL/nostril were delivered in RNase-free water. Ultra-high-resolution in vivo computed tomography angiography (CTA) was performed in mice for 3D imaging of whole brain vascular architecture^18, ([…], Rendon D, et al. Ultra-High-Resolution In vivo Computed Tomography Imaging of Mouse Cerebrovasculature Using a Long Circulating Blood Pool Contrast Agent. Scientific reports. 2015; 5:10178) as described in Data. The vascular data was quantified using ImageJ. Regions of interest encompassing the Circle of Willis (CoW) and the azygous of the anterior cerebral artery (AzACA) and its branches were selected in CT images using thick slab maximum intensity projection (MIP) or 3D volume rendering. The images were converted to 8-bit grayscale and thresholded to highlight the vasculature containing pixels. The pixels were analyzed as particles and normalized to results from the wildtype mice (WT, Mgp^+/+). Immediately after imaging, mice were euthanized, and brains were frozen in Clear Frozen Section Compound (VWR) and stored at -80° C. Blood was collected for complete blood count (Antech). The lungs, livers, spleens, femurs, and kidneys were harvested and fixed in 10% formalin. Photographs of the stained sections were captured using an Eclipse 80i microscope (Nikon).

[2] = test system: AVM-BEC; experiment: Immunostaining of MMP2 and MMP9 in AVM-BEC; type: cell-based, human
Procedure: Immunostaining was performed as previously described^15. (Virrey J J, Golden E B, Sivakumar W, et al. Glioma-associated endothelial cells are chemoresistant to temozolomide. J Neurooncol. 2009; 95(1):13-22). Primary antibodies used were rabbit anti-MMP2, mouse anti-MMP9 (1:150, Abgent), rabbit anti-phospho-Smad1/5 (Ser463/465) (1:50, Abgent), rabbit anti-BMP4, rabbit anti-PAI-1 (1:50, Proteintech), rabbit anti-VEGF (1:50, Santa Cruz Biotechnology), rabbit anti-HIF-1α (1:50, Cell Signaling Technology), and rabbit anti-phospho-Smad3 (Ser423/425) (1:50, GeneTex). Secondary antibodies used were biotinylated anti-rabbit and biotinylated anti-mouse (1:300, Vector Laboratories), accordingly. Pictures were taken in an Eclipse 80i microscope (Nikon). Images shown are representative of three-five independent experiments.

hsa-miR-18a-5p (UAGGUGCAUCUAGUGCAGAUAG; chemistry not given here; listed as Homo sapiens) [small non-coding RNA molecule involved in post-transcriptional regulation of gene expression; Dharmacon]
activation (phosphorylation) of Smad1/5 in brain sections (IHC) [1]: decreased | expression of BMP4 in brain sections (IHC) [1]: decreased | expression of HIF-1α in brain sections (IHC) [1]: decreased | expression of PAI-1 in brain sections (IHC) [1]: decreased | expression of VEGF in brain sections (IHC) [1]: decreased | signs of fresh hemorrhage and presence of abnormally enlarged blood vessels in the brain [1]: reduced | MMP9 expression (immunostaining) [2]: did not decrease

— patent publication US20230212571A1, “COMPOSITIONS AND METHODS FOR DELIVERING POLYNUCLEOTIDES” (NeOnc Technologies, Inc., priority 2020, published 2023)
